Article PMC7556346 (Cell chemical biology, 2020)
Entries after “also recorded” stand apart in the source; their conditions may differ. Values belong to the molecule of their own block, whether it stands above or below them.

Legend:
[1] = tested on: Wheat Germ Agglutinin (WGA); assay: Lectin binding on microarray; conditions: control glycans on the GP1 array; TSM binding buffer pH 7.4, 1 hr, room temperature
CTD110.6 antibody = CTD110.6 antibody binding on glycopeptide microarrays

- binding of WGA to control glycans [1]: exhibited lectin binding with WGA
Molecule: chitin

Molecule: CC(=O)N[C@H]1C(O)O[C@H](CO)[C@H](O)[C@@H]1O (stereo partly drawn) [GalNAc]
- effect of free GalNAc on CTD110.6 non-specific binding (hapten) (CTD110.6 antibody; GP2 array printed at 100 μM, 20 mM GalNAc): specificity can be restored; also recorded: can be prevented

- effect of free GlcNAc on CTD110.6 binding (hapten competition) (CTD110.6 antibody; GP1 array, 20 mM GlcNAc): completely abolished
Molecule: CC(=O)N[C@H]1C(O)O[C@H](CO)[C@@H](O)[C@@H]1O (stereo partly drawn) [GlcNAc]
